According to US20130345199A1, “1-[M-CARBOXAMIDO(HETERO)ARYL-METHYL]-PIPERIDINE-4-CARBOXAMIDE DERIVATIVES” (Actelion Pharmaceuticals Ltd., priority 2012, published 2013):

Target: T1, CXCR7 (Homo sapiens, UniProt P25106)
T1 construct: host or cells: CHO-K1 (PathHunter CXCR7 b-arrestin cell line, stably transfected)
Assay: PathHunter CHO-K1 CXCR7 b-arrestin assay (agonistic activity)
Assay type: cell-based
Conditions: PathHunter CHO-K1 CXCR7 b-arrestin cell line, 90 minutes at 37° C.
Protocol: The […] receptor and CXCR7 agonistic activities of the compounds of formula (I) are determined in accordance with the following experimental method.
The assay is using the PathHunter™ CHO-K1 CXCR7 b-arrestin cell line from DiscoverX. The system is based on the Enzyme Fragment Complementation Technology. Two complementing fragments of the b-galactosidase enzyme are expressed within stably transfected cells. The larger portion of b-gal, termed EA for Enzyme Acceptor, is fused to the C-terminus of b-arrestin 2. The smaller fragment, termed ProLink™ tag, is fused to CXCR7 at the C-terminus. Upon activation, b-arrestin is recruited which forces the interaction of ProLink and EA, allowing complementation of the two fragments of b-gal and the formation of a functional enzyme which is capable of hydrolysing the substrate and generating a chemiluminescent signal.
CHO-K1 CXCR7 b-arrestin cells are detached from culture dishes with a cell dissociation buffer (Invitrogen, #13151-014) and collected in growing medium (F12HAMS 90% (v/v)/FCS 10% (v/v), Penicilin/streptomycin 1% (v/v)). 5000 cells per well (in 20 μl) are seeded in a 384 well plate (white-walled, clear bottom; BD Falcon #353274). The plate is incubated at 37° C./5% CO2 for 24 hours. Medium is then replaced by […] (Invitrogen #31985) for 3 to 4 hours. Test compounds are dissolved at 10 mM in DMSO and serially diluted in DMSO to 200× of the final concentration for dose response curves. Compounds are then diluted 1:33.3 in HBSS1X. 5 μl/well of HBSS1X/20 mM HEPES/0.2% BSA are added to the assay plate followed by addition of 5 μl/well of diluted compounds. CXCL12 (Peprotech #300-28A) may be used as a reference agonist. The plate is incubated for 90 minutes at 37° C. 12 μl of detection reagent (Path Hunter Detection Kit, DiscoveRx, #93-0001) is transferred to the assay plate and to the plate is incubated for 1 hour at room temperature. Luminescent signal is read in a microplate reader (FLUOstar Optima, bmg). The calculated EC50 values may fluctuate depending on the daily cellular assay performance. Fluctuations of this kind are known to those skilled in the art.

T1 sequence (P25106 whole entry): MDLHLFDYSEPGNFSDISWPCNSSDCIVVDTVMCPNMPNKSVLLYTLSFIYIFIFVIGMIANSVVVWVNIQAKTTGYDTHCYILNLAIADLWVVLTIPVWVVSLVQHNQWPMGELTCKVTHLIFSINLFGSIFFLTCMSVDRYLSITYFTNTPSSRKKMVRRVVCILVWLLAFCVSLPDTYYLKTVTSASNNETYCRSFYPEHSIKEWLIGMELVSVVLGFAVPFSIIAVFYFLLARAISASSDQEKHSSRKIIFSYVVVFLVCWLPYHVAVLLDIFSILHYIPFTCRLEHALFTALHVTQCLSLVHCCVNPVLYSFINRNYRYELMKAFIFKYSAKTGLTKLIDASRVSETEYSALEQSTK

| Compound | EC50 [nM] |
| --- | --- |
| CCCCCCNC(=O)C1CCN(Cc2cccc(NC(=O)c3cccc(C(F)(F)F)n3)c2)CC1 [Example 2.078] | 257 |
| O=C(Nc1cc(CN2CCC(C(=O)NC3CCCCC3)CC2)ccn1)c1ccc(F)cc1 [Example 3.001, 1-[2-(4-Fluoro-benzoylamino)-pyridin-4-ylmethyl]-piperidine-4-carboxylic acid cyclohexylamide] | 24 |
| O=C(Nc1cccc(CN2CCC(C(=O)NC3CCCc4ccccc43)CC2)c1)c1ccc(Cl)cc1 (racemic) [Example 2.019] | 40 |
| CC(NC(=O)C1CCN(Cc2cccc(NC(=O)c3ccc(Cl)cc3)c2)CC1)C1CCCCC1 (racemic) [Example 2.016] | 134 |
| 1-{4-Chloro-3-[(2-phenyl-cyclopropanecarbonyl)-amino]-benzyl}-piperidine-4-carboxylic acid cyclohexylamide [Example 1.161] | 26 |
| Cc1cncc(C(=O)Nc2csc(CN3CCC(C(=O)NC(C)(C)C)CC3)c2)c1 [Example 3.013, N-[5-(4-tert-Butylcarbamoyl-piperidin-1-ylmethyl)-thiophen-3-yl]-5-methyl-nicotinamide] | 13 |
| CNC(=O)C1CCN(Cc2cccc(NC(=O)c3ccc(Cl)cc3)c2)CC1 [Example 2.002] | 3 |
| CC(C)(C)CNC(=O)C1CCN(Cc2cccc(NC(=O)c3cccc(C(F)(F)F)n3)c2)CC1 [Example 2.070] | 6 |
| CC(C)(C)NC(=O)C1CCN(Cc2csc(NC(=O)Cc3ccccc3Cl)c2)CC1 [Example 3.010, 1-{5-[2-(2-Chloro-phenyl)-acetylamino]-thiophen-3-ylmethyl}-piperidine-4-carboxylic acid tert-butylamide] | 41 |
| O=C(Nc1cc(CN2CCC(C(=O)NC3CCCCC3)CC2)ccn1)c1ccc(Cl)cc1 [Example 3.002, 1-[2-(4-Chloro-benzoylamino)-pyridin-4-ylmethyl]-piperidine-4-carboxylic acid cyclohexylamide] | 57 |
| Cc1cncc(C(=O)Nc2cccc(CN3CCC(C(=O)N4CCCC4C)CC3)c2)c1 (racemic) [Example 2.050] | 26 |
| O=C(Nc1cccc(CN2CCC(C(=O)NC3CCC(F)(F)CC3)CC2)c1)c1ccc(Cl)cc1 [Example 2.014] | 2 |
| 5-Chloro-N-[4-chloro-3-(4-cyclopentylcarbamoyl-piperidin-1-ylmethyl)-phenyl]-nicotinamide [Example 1.227] | 0.6 |
| CC(C)(C)NC(=O)C1(F)CCN(Cc2cccc(NC(=O)c3cccc(C(F)(F)F)n3)c2)CC1 [Example 4.009, 6-Trifluoromethyl-pyridine-2-carboxylic acid [3-(4-tert-butylcarbamoyl-4-fluoro-piperidin-1-ylmethyl)-phenyl]-amide] | 20 |
| O=C(Nc1cccc(CN2CCCC(C(=O)NCC3CC3)CC2)c1)c1cccc(C(F)(F)F)n1 (racemic) [Example 2.089] | 36 |
| CCCN(C)C(=O)C1CCN(Cc2cccc(NC(=O)c3cncc(C)c3)c2)CC1 [Example 2.056] | 6 |
| Cc1cncc(C(=O)Nc2cccc(CN3CCC(C(=O)N4CCCC4(C)C)CC3)c2)c1 [Example 2.060] | 10 |
| COCCN(C)C(=O)C1CCN(Cc2cccc(NC(=O)c3cncc(C)c3)c2)CC1 [Example 2.058] | 224 |
| O=C(Nc1cccc(CN2CCC(C(=O)NCC3CCCC3)CC2)c1)c1ccc(Cl)cc1 [Example 2.010] | 4 |
| CCC(CC)NC(=O)C1CCN(Cc2cccc(NC(=O)c3cncc(C)c3)c2)CC1 [Example 2.040] | 8 |
| O=C(Nc1cccc(CN2CCC(C(=O)NC3CC4CCC3C4)CC2)c1)c1ccc(Cl)cc1 (racemic) [Example 2.008] | 6 |
| O=C(Nc1cccc(CN2CCC(C(=O)NCc3nccs3)CC2)c1)c1ccc(Cl)cc1 [Example 2.024] | 32 |
| Cc1cncc(C(=O)Nc2cccc(CN3CCC(C(=O)NC4CCCCC4)C3)c2)c1 (stereo not shown) [Example 2.063] | 92 |
| CCC(C)NC(=O)C1CCCN(Cc2cccc(NC(=O)c3cccc(C(F)(F)F)n3)c2)CC1 (racemic) [Example 2.087] | 6 |
| COCC(C)NC(=O)C1CCN(Cc2cccc(NC(=O)c3cccc(C(F)(F)F)n3)c2)CC1 (stereo not shown) [Example 2.092] | 3 |

| Compound | EC50 [nM] |
| --- | --- |
| COCCNC(=O)C1CCN(Cc2cccc(NC(=O)c3ccc(Cl)cc3)c2)CC1 [Example 2.005] | 5 |
| O=C(Nc1cccc(CN2CCC(C(=O)N[C@H](CO)C3CCCCC3)CC2)c1)c1cccc(C(F)(F)F)n1 [Example 2.066] | 431 |
| CC(C)(C)CCNC(=O)C1CCN(Cc2cccc(NC(=O)c3cccc(C(F)(F)F)n3)c2)CC1 [Example 2.082] | 121 |
| Cc1cncc(C(=O)Nc2cccc(CN3CCC(C(=O)N4CCC(F)(F)C4)CC3)c2)c1 [Example 2.054] | 109 |
| CC(C)(C)NC(=O)C1CCN(Cc2cc(NC(=O)c3cccc(C(F)(F)F)n3)ncn2)CC1 [Example 5.001, 6-Trifluoromethyl-pyridine-2-carboxylic acid [6-(4-tert-butylcarbamoyl-piperidin-1-ylmethyl)-pyrimidin-4-yl]-amide] | 29 |
| O=C(Nc1cccc(CN2CCC(C(=O)NC3CC3)CC2)c1)c1ccc(Cl)cc1 [Example 2.006] | 2 |
| CC(C)(C)NC(=O)C1CCN(Cc2cc(NC(=O)c3ccc(F)cc3)cs2)CC1 [Example 3.009, 1-[4-(4-Fluoro-benzoylamino)-thiophen-2-ylmethyl]-piperidine-4-carboxylic acid tert-butylamide] | 4 |
| CCN(CC)C(=O)C1CCN(Cc2cccc(NC(=O)c3ccc(Cl)cc3)c2)CC1 [Example 2.009] | 1 |
| O=C(Nc1cccc(CN2CCC(C(=O)NC3CCC(O)CC3)CC2)c1)c1ccc(Cl)cc1 (stereo not shown) [Example 2.011] | 241 |
| Cc1cncc(C(=O)Nc2ccc(F)c(CN3CCC(C(=O)NC4CCCCC4)CC3)c2)c1 [Example 4.018, N-[3-(4-Cyclohexylcarbamoyl-piperidin-1-ylmethyl)-4-fluoro-phenyl]-5-methyl-nicotinamide] | 11 |
| O=C(Nc1cccc(CN2CCC(C(=O)NCc3ccccc3)CC2)c1)c1ccc(Cl)cc1 [Example 2.035] | 45 |
| COc1cncc(C(=O)Nc2cccc(CN3CCC(C(=O)NC4CCCC4)CC3)c2)c1 [Example 4.013, N-[3-(4-Cyclopentylcarbamoyl-piperidin-1-ylmethyl)-phenyl]-5-methoxy-nicotinamide] | 9 |
| O=C(Nc1cccc(CN2CCC(F)(C(=O)NC3CCCCC3)CC2)c1)c1cccc(C(F)(F)F)n1 [Example 4.008, 6-Trifluoromethyl-pyridine-2-carboxylic acid [3-(4-cyclohexylcarbamoyl-4-fluoro-piperidin-1-ylmethyl)-phenyl]-amide] | 71 |
| CC1(C(=O)NC2CCCCC2)CCN(Cc2cccc(NC(=O)c3cccc(C(F)(F)F)n3)c2)CC1 [Example 4.010, 6-Trifluoromethyl-pyridine-2-carboxylic acid [3-(4-cyclohexylcarbamoyl-4-methyl-piperidin-1-ylmethyl)-phenyl]-amide] | 57 |
| O=C(Nc1cncc(CN2CCC(C(=O)NC3CCCCC3)CC2)c1)c1ccc(Cl)cc1 [Example 3.004, 1-[5-(4-Chloro-benzoylamino)-pyridin-3-ylmethyl]-piperidine-4-carboxylic acid cyclohexylamide] | 36 |
| Cc1cncc(C(=O)Nc2cccc(CN3CCC(C(=O)N4CC[C@H](F)C4)CC3)c2)c1 [Example 2.053] | 195 |
| O=C(Nc1cccc(CN2CCC(C(=O)NC3CCc4ccccc43)CC2)c1)c1ccc(Cl)cc1 (racemic) [Example 2.020] | 21 |
| O=C(Nc1ccnc(CN2CCC(C(=O)NC3CCCCC3)CC2)c1)c1ccc(F)cc1 [Example 3.006, 1-[4-(4-Fluoro-benzoylamino)-pyridin-2-ylmethyl]-piperidine-4-carboxylic acid cyclohexylamide] | 56 |
| CNC(=O)C1CCN(Cc2cccc(NC(=O)c3cccs3)c2)CC1 [Example 2.072] | 188 |
| Cc1cncc(C(=O)Nc2cccc(CN3CCC(C(=O)N4CCC(F)(F)CC4)CC3)c2)c1 [Example 2.049] | 300 |
| CC(C)NC(=O)C1CCN(Cc2cccc(NC(=O)c3ccc(Cl)cc3)c2)CC1 [Example 2.003] | 0.8 |
| Cc1cncc(C(=O)Nc2cccc(CN3CCC(C(=O)N4CC[C@@H](F)C4)CC3)c2)c1 [Example 2.052] | 121 |
| CNC(=O)C1CCN(Cc2cccc(NC(=O)c3cccc(C(F)(F)F)n3)c2)CC1 [Example 2.068] | 4 |
| CC(C)(C)NC(=O)C1CCCN(Cc2cccc(NC(=O)c3cccc(C(F)(F)F)n3)c2)CC1 (racemic) [Example 2.086] | 10 |
